{"source": "paper PMC8329197", "about": "“Compounds targeting OSBPL7 increase ABCA1-dependent cholesterol efflux preserving kidney function in two models of kidney disease” (Nature Communications, 2021)", "key": {"[1]": {"test_system": "Adriamycin (ADR)-induced nephropathy in Balb/c mice", "experiment": "Adriamycin-induced nephropathy, dose-finding pilot study: ACR and body weight time course", "conditions": "for ACR in pilot study: days 7-28; for Body Weight / ACR in spot urine: ADR, individual mice"}, "[2]": {"test_system": "Adriamycin (ADR)-induced nephropathy in Balb/c mice", "experiment": "ADR nephropathy: kidney cortex lipids (cholesterol ester, total cholesterol, triglycerides, Oil-red O)", "assay_type": "in vivo, mouse", "procedure": "OCT embedded kidney cortex samples were cryosectioned at 4 μm thickness and stained with Oil-Red O-isopropanol solution (Electron Microscopy Science, PA) diluted 6:4 in water, and then counterstained with Hematoxylin Harris Hg Free (VWR, PA). Sections were then evaluated using a light microscope (Olympus BX 41, Tokyo, Japan).\nSnap frozen kidney cortex samples were homogenized in 2 mM potassium phosphate buffer, pH 7, (10 µl buffer/mg tissue) using a glass douncer on ice. 100 μl of the homogenate were mixed thoroughly with 1 ml of hexane:isopropanol (3:2;v:v) per volume of tissue homogenate. The aqueous (pellet) and organic (supernatant) phases were separated by centrifugation at 12,000 × g for 5 min. Pellets (aqueous phase) were dried, reconstituted in 8 M urea, 0.1% SDS, 0.1 M NaOH, and total proteins were quantified by the BCA method (Thermofisher). The organic phase was dried by exposure to nitrogen. Lipids were then reconstituted in 100 µl isopropanol:NP-40 (9:1;v:v). Triglyceride content was assayed using a colorimetric kit according to the manufacturer’s instructions (Cayman Chemical USA). Total cholesterol and CE content were assayed using an enzymatic fluorometric method. For total cholesterol measurement, extracts were diluted 1:100 in assay buffer (100 mM potassium phosphate, 50 mM NaCl, 5 mM cholic acid, 0.1% Triton […], pH 7.4) containing cholesterol oxidase (1 U/ml), cholesterol esterase (1 U/ml), horseradish peroxidase (1 U/ml), and Amplex Red (75 µM). The reactions were incubated at 37 °C for 30 min in a black opaque 96-well plate (Greiner) and fluorescence was measured in a microplate reader (Spectramax i3X, Molecular Devices) at 530 nm excitation and 580 emission.\nFor CE determination, 150 µl of the assay buffer described above, supplemented with bovine liver catalase (45 U/ml) and cholesterol oxidase (1 U/ml), was added to 25 μl of sample and incubated overnight at 37 °C to deplete free cholesterol leaving only cholesterol esters. Then, 75 µl of cholesterol ester detection reagent (1 U/ml cholesterol oxidase, 4 U/ml cholesterol esterase, 24 U/ml horseradish peroxidase, 300 µM Amplex Red) was added. The reaction was incubated at 37 °C for 30 min and the fluorescence signal was measured as described above. Internal standards included samples containing 1 mM of cholesterol and 5 μM of cholesterol oleate in order to verify the completeness of the enzymatic decomposition of free cholesterol as well as assay sensitivity and specificity."}, "[3]": {"test_system": "human podocytes", "experiment": "apoAI-mediated cholesterol efflux in human podocytes", "assay_type": "cell-based", "conditions": "for ApoA1-mediated cholesterol efflux (%) in podocytes: single experiments", "procedure": "Cell lines were purchased from ATCC and subcultured for no more than passage 15, except for human podocytes, which were originally from Dr Jochen Reiser. Conditionally immortalized human podocytes were cultured under permissive conditions at 33 °C, in RPMI medium (Corning) containing 10% FBS (GIBCO), 1% penicillin/streptomycin, 0.01 mg/ml recombinant human insulin, 0.0055 mg/ml human transferrin (substantially iron-free), and 0.005 μg/ml sodium selenite (ITS, Corning). To induce differentiation, podocytes were cultured at 37 °C for 14 days in RPMI medium containing 10% FBS (GIBCO) and 1% penicillin/streptomycin. Differentiated podocytes were starved in RPMI-0.2% FBS for 18 h and then treated with 1 μM, 5 μM, and 10 μM of compounds freshly prepared in DMSO for 18 h at 37 °C as indicated.\nHuman podocytes differentiated for 13 days were labeled for 24 h at 37 °C in RPMI medium containing 2% FBS and [^3H]-cholesterol (1 μCi/ml, American Radiolabeled Chemicals). Cells were then washed 3 times with PBS and incubated with RPMI supplemented with 0.2% fat free-BSA (Sigma) with or without compounds for 18-h at 37 °C. The compounds were used at the following concentrations: Cpd C (1 μM), Cpd A (1 μM, 5 μM) and Cpd G (1 μM, 5 μM, 10 μM). Following the 18-h incubation, human apoAI (Calbiochem) was added to the media, (20 μg/mL final concentration) and the cells were incubated for another 18 h at 37 °C. Aliquots of medium collected before (T = 0 h) and after (T = 18 h) the addition of apoAI were centrifuged at 12,000 × g for 5 min and the radioactivity in the supernatant was counted by liquid scintillation. Cells were then washed with PBS, lysed 0.1% SDS, 0.1M NaOH and the radioactivity in the lysates was quantified by liquid scintillation. apoAI-mediated cholesterol efflux, expressed as %, was calculated as the amount of label released to the medium after adding apoAI (the difference in radioactivity in the medium before and after adding ApoA1) divided by the amount of total label in each well (radioactivity released to the media plus radioactivity in the lysed cells)."}, "[4]": {"conditions": "30 mg/Kg/day, 7 days after inj, 30 mg/kg/day"}, "[5]": {"conditions": "30 mg/Kg/day, 14 days after inj, 30 mg/kg/day"}, "[6]": {"conditions": "30 mg/Kg/day, 21 days after inj, 30 mg/kg/day"}, "[7]": {"conditions": "30 mg/Kg/day, 28 days after inj, 30 mg/kg/day"}, "[8]": {"conditions": "100 mg/Kg/day, 7 days after inj, 100 mg/kg/day"}, "[9]": {"conditions": "100 mg/Kg/day, 14 days after inj, 100 mg/kg/day"}, "[10]": {"conditions": "100 mg/Kg/day, 21 days after inj, 100 mg/kg/day"}, "[11]": {"conditions": "100 mg/Kg/day, 28 days after inj, 100 mg/kg/day"}}, "note": "Several values for one entry are separate records, joined by “and”; a condition that tells them apart may be missing. Identical values can stand only once.", "data": [{"smiles": "O=C(N[C@@H]1CCCC[C@H]1O)c1cnc(OCC(F)(F)F)c(-c2ccc(Cl)c(Cl)c2)c1", "note": "[Cpd G]", "values": [{"measurement": "ACR in pilot study", "setting": "[1]; 30 mg/kg/day oral", "result": "to a lesser extent"}, {"measurement": "ACR in pilot study", "setting": "[1]; 100 mg/kg/day oral", "result": "significantly improved"}, {"measurement": "Body Weight", "setting": "[1]; 30 mg/Kg/day, 0 days after inj, 30 mg/kg/day", "result": "20 grams and 18 grams and 19 grams (2×) and 23 grams"}, {"measurement": "ACR in spot urine", "setting": "[1]; [4]", "result": "0.007 mg Albumin/ mg Creatinine in urine and 0.03 mg Albumin/ mg Creatinine in urine and 0.12 mg Albumin/ mg Creatinine in urine and 31.944 mg Albumin/ mg Creatinine in urine and 0.643 mg Albumin/ mg Creatinine in urine"}, {"measurement": "Body Weight", "setting": "[1]; [4]", "result": "18 grams and 19 grams (3×) and 23 grams"}, {"measurement": "ACR in spot urine", "setting": "[1]; [5]", "result": "51.688 mg Albumin/ mg Creatinine in urine and 33.252 mg Albumin/ mg Creatinine in urine and 84.069 mg Albumin/ mg Creatinine in urine and 36.836 mg Albumin/ mg Creatinine in urine and 5.571 mg Albumin/ mg Creatinine in urine"}, {"measurement": "Body Weight", "setting": "[1]; [5]", "result": "18 grams and 19 grams (2×) and 16 grams and 23 grams"}, {"measurement": "ACR in spot urine", "setting": "[1]; [6]", "result": "85.027 mg Albumin/ mg Creatinine in urine and 29.222 mg Albumin/ mg Creatinine in urine and 44.604 mg Albumin/ mg Creatinine in urine and 23.436 mg Albumin/ mg Creatinine in urine and 5.121 mg Albumin/ mg Creatinine in urine"}, {"measurement": "Body Weight", "setting": "[1]; [6]", "result": "17 grams and 19 grams (2×) and 18 grams and 15 grams"}, {"measurement": "ACR in spot urine", "setting": "[1]; [7]", "result": "34.615 mg Albumin/ mg Creatinine in urine and 3.13 mg Albumin/ mg Creatinine in urine and 6.059 mg Albumin/ mg Creatinine in urine and 7.143 mg Albumin/ mg Creatinine in urine and 2.473 mg Albumin/ mg Creatinine in urine"}, {"measurement": "Body Weight", "setting": "[1]; [7]", "result": "16 grams and 20 grams (2×) and 17 grams and 15 grams"}, {"measurement": "Body Weight", "setting": "[1]; 100 mg/Kg/day, 0 days after inj, 100 mg/kg/day", "result": "20 grams (3×) and 16 grams and 22 grams"}, {"measurement": "ACR in spot urine", "setting": "[1]; [8]", "result": "0.061 mg Albumin/ mg Creatinine in urine and 0.016 mg Albumin/ mg Creatinine in urine and 0.015 mg Albumin/ mg Creatinine in urine and 0.233 mg Albumin/ mg Creatinine in urine and 9.666 mg Albumin/ mg Creatinine in urine"}, {"measurement": "Body Weight", "setting": "[1]; [8]", "result": "19 grams (3×) and 16 grams and 22 grams"}, {"measurement": "ACR in spot urine", "setting": "[1]; [9]", "result": "3.994 mg Albumin/ mg Creatinine in urine and 0.535 mg Albumin/ mg Creatinine in urine and 50.828 mg Albumin/ mg Creatinine in urine and 1.336 mg Albumin/ mg Creatinine in urine and 89.551 mg Albumin/ mg Creatinine in urine"}, {"measurement": "Body Weight", "setting": "[1]; [9]", "result": "20 grams (2×) and 19 grams (2×) and 15 grams"}, {"measurement": "ACR in spot urine", "setting": "[1]; [10]", "result": "0.238 mg Albumin/ mg Creatinine in urine and 0.124 mg Albumin/ mg Creatinine in urine and 0.794 mg Albumin/ mg Creatinine in urine and 8.14 mg Albumin/ mg Creatinine in urine"}, {"measurement": "Body Weight", "setting": "[1]; [10]", "result": "20 grams (3×) and 15 grams and 19 grams"}, {"measurement": "ACR in spot urine", "setting": "[1]; [11]", "result": "0.09 mg Albumin/ mg Creatinine in urine and 0.018 mg Albumin/ mg Creatinine in urine and 0.86 mg Albumin/ mg Creatinine in urine and 0.271 mg Albumin/ mg Creatinine in urine and 3.053 mg Albumin/ mg Creatinine in urine"}, {"measurement": "Body Weight", "setting": "[1]; [11]", "result": "20 grams (2×) and 21 grams and 20.5 grams and 16 grams"}, {"measurement": "KIDNEY CORTEX TOTAL CHOLESTEROL", "setting": "[2]; ADR model, individual animals", "result": "79.82 nmol Chol./mg protein and 76.54 nmol Chol./mg protein and 118.96 nmol Chol./mg protein and 209.77 nmol Chol./mg protein and 137.06 nmol Chol./mg protein and 201.43 nmol Chol./mg protein and 118.77 nmol Chol./mg protein and 118.29 nmol Chol./mg protein and 88.73 nmol Chol./mg protein and 117.18 nmol Chol./mg protein"}, {"measurement": "KIDNEY CORTEX TRIGLYCERIDES", "setting": "[2]; ADR model, individual animals", "result": "45.04 nmol Triglyceride /mg protein and 65 nmol Triglyceride /mg protein and 36.98 nmol Triglyceride /mg protein and 31.32 nmol Triglyceride /mg protein and 30.95 nmol Triglyceride /mg protein and 56.24 nmol Triglyceride /mg protein and 28.95 nmol Triglyceride /mg protein and 62.65 nmol Triglyceride /mg protein and 57.76 nmol Triglyceride /mg protein"}, {"measurement": "Cholesterol ester content in kidneys from individual animals", "setting": "[2]; ADR, day 28 of treatment, paired with ACR of same animal", "result": "0.13 nmol CE/mg and 0.19 nmol CE/mg and 0.14 nmol CE/mg and 0.15 nmol CE/mg and 0.03 nmol CE/mg and 0.01 nmol CE/mg and 0.17 nmol CE/mg"}, {"measurement": "Cholesterol esters in renal cortex, ADR model", "setting": "[2]; Cpd G 28 days after ADR", "result": "reduced accumulation of cholesterol esters"}, {"measurement": "Renal CE content, Median", "setting": "[2]; mice challenged with ADR, treated for 28 days, group median", "result": 0.975, "unit": "nmol CE/ mg protein"}, {"measurement": "Renal CE content (cholesterol ester, normalized to total proteins in kidney cortexes)", "setting": "[2]; mice challenged with ADR, treated for 28 days, individual animals", "result": "0.88 nmol CE/ mg protein and 1.16 nmol CE/ mg protein and 1.07 nmol CE/ mg protein and 1.59 nmol CE/ mg protein and 0.87 nmol CE/ mg protein and 0.53 nmol CE/ mg protein and 0.78 nmol CE/ mg protein and 0.58 nmol CE/ mg protein and 1.14 nmol CE/ mg protein and 1.47 nmol CE/ mg protein"}, {"measurement": "ApoA1-mediated cholesterol efflux (%) in podocytes", "setting": "[3]; 1 uM", "result": "0.3% and 1.2% and 1.6%"}, {"measurement": "ApoA1-mediated cholesterol efflux (%) in podocytes", "setting": "[3]; 5 uM", "result": "0% and 2.5% and 2.3%"}, {"measurement": "ApoA1-mediated cholesterol efflux (%) in podocytes", "setting": "[3]; 10 uM", "result": "4.4% and 7.9%"}, {"measurement": "Increase in apoAI-mediated cholesterol efflux vs. untreated cells", "setting": "[3]; Cpd G 10 µM, Cpd A 5 µM, Cpd C 1 µM", "result": "~2", "unit": "fold"}]}]}
